Holding throughout (format): cell membranes, Membrane
Test [1] addresses Adrenergic receptor alpha. Kind of test: Inhibition of [3H]WB-4101 binding to alpha adrenergic receptor from rat cerebral cortical membranes.
Another test addresses Adrenergic receptor beta (Rattus norvegicus, UniProt P18090+P10608+P26255). Kind of test: Inhibition of [3H]dihydroalprenolol binding to Beta adrenergic receptor from rat cerebral cortical membranes.
Another test addresses Dopamine receptor. Kind of test: Inhibition of [3H]spiroperidol binding to dopamine receptor from rat striatum membranes.

In the case of `COc1ccc(CC2NCCc3cc(OC)c(OC)cc32)cc1OC` (configuration not stated) [TETRAHYDROPAPAVERINE], the inhibitory constant (Ki) – broadly, the dissociation constant of the complex between target and ligand, obtained from inhibition or displacement – in test [1] was determined as 10 µM; on Adrenergic receptor beta, 1 µM.
Consider `Oc1ccc(CC2NCCc3cc(O)c(O)cc32)cc1O` (configuration not stated), for which the results for the Ki (in test [1]; on Adrenergic receptor beta; at Dopamine receptor) were 40 µM, 0.3 µM and 10 µM, respectively.
On the same counts, the results for `O=C(O)C1(Cc2ccc(O)c(O)c2)NCCc2cc(O)c(O)cc21` (configuration not stated) are > 100 µM, > 100 µM and > 100 µM.
The corresponding values for `COc1ccc(C[C@H]2NCCc3cc(OC)c(O)cc32)cc1O` are 10 µM, 30 µM and 30 µM.
On the same counts, the results for `COc1ccc(C[C@@H]2NCCc3cc(OC)c(O)cc32)cc1O` are 5 µM, 1.3 µM and 1.5 µM.
For the compound `COc1ccc(CC2NCCc3cc(OC)c(O)cc32)cc1O` (configuration not stated), the Ki in test [1] was 7.5 µM; at Adrenergic receptor beta, 4 µM; on Dopamine receptor, 3.8 µM.
Take `Oc1ccc(C[C@H]2NCCc3cc(O)c(O)cc32)cc1O`: the Ki is 25 µM in test [1], 30 µM at Adrenergic receptor beta and 35 µM at Dopamine receptor.
On to `Oc1cc(Br)c(CC2NCCc3cc(O)c(O)cc32)cc1O` (configuration not stated), for which the figures for the Ki (in test [1]; on Adrenergic receptor beta; at Dopamine receptor) were 0.5 µM, 40 µM and 1.5 µM, respectively.
In the case of `COc1cc(CC2(C(=O)O)NCCc3cc(O)c(O)cc32)ccc1O` (configuration not stated), the Ki (in test [1]; at Adrenergic receptor beta; at Dopamine receptor) was > 100 µM each time.
Regarding `COc1cc(CC2NCCc3cc(O)c(O)cc32)ccc1O` (configuration not stated), the results for the Ki (in test [1]; at Adrenergic receptor beta; on Dopamine receptor) were 4.5 µM, 0.5 µM and 5 µM, respectively.
For the compound `COc1cc(C[C@@H]2NCCc3cc(O)c(O)cc32)cc(OC)c1OC` [TRETOQUINOL], the Ki in test [1] worked out at 10 µM; on Dopamine receptor, 5 µM.
Turning to `Oc1ccc(C[C@@H]2NCCc3cc(O)c(O)cc32)cc1O`, the Ki in test [1] was found to be 5 µM; at Adrenergic receptor beta, 0.3 µM; on Dopamine receptor, 2 µM.
With `COc1cc2c(cc1O)C(Cc1ccc(O)c(O)c1)NCC2` (configuration not stated), the Ki in test [1] was 7.5 µM; on Adrenergic receptor beta, 0.2 µM; on Dopamine receptor it was 4.5 µM.

The values above are taken from ChEMBL document CHEMBL1121453, “Mammalian alkaloids. 8. Synthesis and biological effects of tetrahydropapaveroline related 1-benzyltetrahydroisoquinolines” (J Med Chem, 1980).
